Results taken from patent US20240010658A1, “ABHD6 ANTAGONIST” (ONO PHARMACEUTICAL CO., LTD., priority 2021, published 2024).

Assays:
[1] = molecular target: recombinant human ABHD6 (33-337) (Homo sapiens (Human), UniProt Q9BV23); assay: Evaluation of ABHD6 enzyme inhibitory activity (arachidonic acid production from 1-arachidonoyl glycerol, RapidFire-MS); assay type: biochemical; details: inhibition of arachidonic acid production, 10 μmol/L 1-arachidonoyl glycerol, 1 hour, room temperature
Experimental: The recombinant human ABHD6 (33-337) was a GST-tagged ABHD6, and one which was expressed in E. coli, then purified with a Glutathione-Sepharose 4B resin, and then concentrated was used. The enzyme reaction was carried out at room temperature using a 384-well microplate made of polypropylene, and wells to which no enzyme was added were designated as a blank group.
One hour after the start of the enzyme reaction, methanol containing, as an internal standard substance, arachidonic acid-d8 (Cayman Chemical) and 1% formic acid was added to stop enzymatic reaction. The upper part of the enzyme reaction plate was sealed with aluminum, and centrifugation was performed at 560 g for 5 minutes at room temperature. Then, arachidonic acid as an enzyme reaction product and arachidonic acid-ds as the internal standard substance were quantified with RapidFire (registered trademark)-Mass Spectrometry system.

human ABHD6 = human ABHD6 (Homo sapiens (Human), UniProt Q9BV23); assay: Measurement of binding affinity for human ABHD6 (BRET, HEK293 cells expressing NanoLuc-human ABHD6 fusion protein); details: BRET competition with fluorescent probe molecule 100 nmol/L in HEK293 cells expressing NanoLuc-human ABHD6
human ABHD6, sequence (Q9BV23 whole entry, the tested form may be a part): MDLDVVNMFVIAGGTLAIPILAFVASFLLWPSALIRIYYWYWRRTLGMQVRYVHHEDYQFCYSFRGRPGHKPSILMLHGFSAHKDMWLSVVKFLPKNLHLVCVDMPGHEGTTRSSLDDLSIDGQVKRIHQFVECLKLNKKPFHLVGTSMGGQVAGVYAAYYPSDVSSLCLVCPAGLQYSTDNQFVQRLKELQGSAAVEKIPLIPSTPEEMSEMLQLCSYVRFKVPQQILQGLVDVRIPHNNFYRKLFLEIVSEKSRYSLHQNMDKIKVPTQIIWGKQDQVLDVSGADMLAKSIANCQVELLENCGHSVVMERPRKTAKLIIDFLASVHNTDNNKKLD
Experimental: The binding affinity of the test compound for human ABHD6 was measured using bioluminescence resonance energy transfer (hereinafter, abbreviated as BRET) as an index. The bioluminescence resonance energy transfer is induced by the proximity of a probe molecule and a NanoLuc-human ABHD6 fusion protein, which is caused by allowing a fluorescent probe molecule and a test compound to act in a competitive manner using HEK293 cells forcibly expressing the NanoLuc-human ABHD6 fusion protein.
The test compound and the compound described in Example 2 as a control substance were each dissolved in dimethyl sulfoxide (DMSO) to prepare a 10 mmol/L solution. The prepared 10 mmol/L solution was thawed at the time of use, serially diluted with DMSO, and subjected to an experiment.
HEK293 cells expressing a NanoLuc-human ABHD6 fusion protein were statically cultured at 37° C. in the presence of 5% CO2 using inactivated (56° C., 30 min) 9.8 vol % non-dialyzed-FBS (containing 0.5 vol % GENETICIN and 1% penicillin-streptomycin). The subculture was performed by the following method.
The culture medium was removed, and the cells were washed once with phosphate buffered saline without Ca^2+ and Mg^2+. An appropriate amount of trypsin-EDTA was added, and the cells were incubated at room temperature. After the cells were detached, a culture medium in a volume 10-fold the volume of trypsin-EDTA (0.05%) was added to stop an enzyme reaction. The cells were collected in a centrifuge tube, and centrifuged at room temperature for 3 minutes at 120 g, and the supernatant was removed. The cells were suspended in an appropriate amount of culture medium and seeded in a culture flask.
HEK293 cells expressing a NanoLuc-human ABHD6 fusion protein were prepared, and then cryopreserved so as to be 5.0×10^6 cells/mL/vial in CELLBANKER2, and the cells were subjected to an experiment. HBSS (+) containing 20 mmol/L HEPES (pH 7.3) and 0.1% BSA was prepared and used as an assay buffer. The cells were thawed and suspended in the assay buffer to prepare a cell suspension of 2×10^5 cells/mL. […] The plate was allowed to stand at 37° C. for 30 minutes in the presence of 5% CO2. Then, a probe molecule (10 mmol/L in DMSO) having a fluorophore was diluted with the assay buffer so as to have a final concentration of 100 nmol/L, and added to the assay plate in an amount of 15 μL each. Further, this was allowed to stand at 37° C. for 30 minutes in the presence of 5% CO2. Then, a Nano-Glo (registered trademark) Vivazine (trademark) substrate (Promega Corporation) was diluted with the assay buffer according to the method described in the protocol, and added to the assay plate in an amount of 10 μL each, and this was allowed to stand at room temperature for 1 hour. Thereafter, the luminescence and fluorescence intensity were measured using a GloMax (registered trademark) discover system. The ratio between the emission intensity through the 450 nm bandpass filter and the fluorescence intensity through the 600 nm longpass filter was defined as the measured value of each sample. The measured value of the group containing the control substance at a final concentration of 30 μmol/L was defined as 100% inhibition. The measured value of the group not containing the compound was defined as 0% inhibition. The IC50 value of the test compound was determined from the measured value at each test compound concentration.

recombinant human ABHD6 (33-337), sequence (Q9BV23 33-337): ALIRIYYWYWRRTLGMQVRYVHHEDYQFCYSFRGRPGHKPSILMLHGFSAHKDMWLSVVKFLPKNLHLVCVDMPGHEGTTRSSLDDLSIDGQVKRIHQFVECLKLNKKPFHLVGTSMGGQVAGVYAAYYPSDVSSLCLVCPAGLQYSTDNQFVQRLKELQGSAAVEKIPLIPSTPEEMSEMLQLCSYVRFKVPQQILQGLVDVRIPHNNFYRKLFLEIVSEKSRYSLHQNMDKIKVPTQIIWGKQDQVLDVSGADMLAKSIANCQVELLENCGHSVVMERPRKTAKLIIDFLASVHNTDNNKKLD

SMILES	IC50 [1] [nM]	IC50 (human ABHD6) [nM]
CN1C(=O)CCc2sc(C(=O)N3C[C@@H]4CC[C@@H](Nc5ccc(Br)nn5)[C@@H]4C3)cc21 [Example 3, 2-{[(3aS,4R,6aR)-4-[(6-Bromo-3-pyridazinyl)amino]hexahydrocyclopenta[c]pyrrol-2(1H)-yl]carbonyl}-4-methyl-6,7-dihydrothieno[3,2-b]pyridin-5(4H)-one]	5	62
O=C(c1cc2c(s1)CCOC2)N1C[C@@H]2CC[C@@H](Nc3ccc(Br)nn3)[C@@H]2C1 [Example 2-1, [(3aS,4R,6aR)-4-[(6-Bromo-3-pyridazinyl)amino]hexahydrocyclopenta[c]pyrrol-2(1H)-yl](6,7-dihydro-4H-thieno[3,2-c]pyran-2-yl)methanone]	1	3
O=C(c1cc2c(s1)CCOC2)N1C[C@H]2[C@H](Nc3ccc(Br)nn3)CC(F)(F)[C@H]2C1 [Example 16, [(3aR,6R,6aS)-6-[(6-Bromo-3-pyridazinyl)amino]-4,4-difluorohexahydrocyclopenta[c]pyrrol-2(1H)-yl](6,7-dihydro-4H-thieno[3,2-c]pyran-2-yl)methanone]	1	4
O=C(C1CC2CCC1CC2)N1C[C@@H]2CC[C@@H](Nc3ccc(Br)nn3)[C@@H]2C1 (stereo partly drawn) [Example 2-14, Bicyclo[2.2.2]oct-2-yl[(3aS,4R,6aR)-4-[(6-bromo-3-pyridazinyl)amino]hexahydrocyclopenta[c]pyrrol-2(1H)-yl]methanone]	2	16
O=C(c1ccc(C(F)F)s1)N1C[C@@H]2CC[C@@H](Nc3ccc(Cl)nn3)[C@@H]2C1 [Example 1, {(3aS,4R,6aR)-4-[(6-Chloro-3-pyridazinyl)amino]hexahydrocyclopenta[c]pyrrol-2(1H)-yl}[5-(difluoromethyl)-2-thienyl]methanone]	1	11
O=C(c1cc2c(s1)CCOC2)N1C[C@@H]2CC[C@@H](Nc3ccc(Cl)nn3)[C@]2(F)C1 [Example 12, {(3aR,4R,6aS)-4-[(6-Chloro-3-pyridazinyl)amino]-3a-fluorohexahydrocyclopenta[c]pyrrol-2(1H)-yl}(6,7-dihydro-4H-thieno[3,2-c]pyran-2-yl)methanone]	1	1
Cc1ccc(C(=O)N2C[C@@H]3CC[C@@H](Nc4ccc(Cl)nn4)[C@@H]3C2)s1 [Example 1-2, {(3aS,4R,6aR)-4-[(6-Chloro-3-pyridazinyl)amino]hexahydrocyclopenta[c]pyrrol-2(1H)-yl}(5-methyl-2-thienyl)methanone]	1	5
Cc1ccc(C(=O)N2C[C@@H]3CC[C@@H](Nc4nnc(Cl)cc4C#N)[C@@H]3C2)s1 (relative stereo) [Example 9, rel-6-Chloro-3-({(3aS,4R,6aR)-2-[(5-methyl-2-thienyl)carbonyl]octahydrocyclopenta[c]pyrrol-4-yl}amino)-4-pyridazinecarbonitrile]	2	8
Cc1ccc(C(=O)N2C[C@@H]3CC[C@@H](Nc4ccc(I)nn4)[C@@H]3C2)s1 [Example 5, [(3aS,4R,6aR)-4-[(6-Iodo-3-pyridazinyl)amino]hexahydrocyclopenta[c]pyrrol-2(1H)-yl](5-methyl-2-thienyl)methanone]	1	3
Cc1ccc(C(=O)N2C[C@@H]3CC[C@@H](Nc4ccc(Br)nn4)[C@@H]3C2)s1 [Example 2, [(3aS,4R,6aR)-4-[(6-Bromo-3-pyridazinyl)amino]hexahydrocyclopenta[c]pyrrol-2(1H)-yl](5-methyl-2-thienyl)methanone]	< 1	1
CN(C)c1ncc(C(=O)N2C[C@@H]3CC[C@@H](Nc4ccc(Br)nn4)[C@@H]3C2)s1 [Example 2-6, [(3aS,4R,6aR)-4-[(6-Bromo-3-pyridazinyl)amino]hexahydrocyclopenta[c]pyrrol-2(1H)-yl][2-(dimethylamino)-1,3-thiazol-5-yl]methanone]	–	25
O=C(c1cc2c(s1)CCOC2)N1C[C@@H]2CC3(CC3)[C@@H](Nc3ccc(Br)nn3)[C@@H]2C1 [Example 15, [(3aS, 4S, 6aR)-4-[(6-Bromopyridazin-3-yl)amino]spiro[1,3,3a,4,6,6a-hexahydrocyclopenta[c]pyrrole-5,1′-cyclopropan]-2-yl]-(6,7-dihydro-4H-thieno[3,2-c]pyran-2-yl)methanone]	1	1
O=C(c1cc2c(s1)CCOC2)N1C[C@@H]2CC[C@@H](Nc3ccc(Cl)nn3)[C@@H]2C1 [Example 1-4, [(3aS,4R,6aR)-4-[(6-Chloro-3-pyridazinyl)amino]hexahydrocyclopenta[c]pyrrol-2(1H)-yl](6,7-dihydro-4H-thieno[3,2-c]pyran-2-yl)methanone]	1	2
Cc1ccc(C(=O)N2C[C@@H]3CC[C@@H](Nc4ccc(Br)nn4)[C@]3(F)C2)s1 [Example 10, [(3aR,4R,6aS)-4-[(6-Bromopyridazin-3-yl)amino]-3a-fluoro-1.3.4.5.6.6a-hexahydrocyclopenta[c]pyrrol-2-yl]-(5-methyl-2-thienyl)methanone]	< 1	2

The remaining lines, values ahead:

IC50 [1] [nM]	IC50 (human ABHD6) [nM]	SMILES
1	5	Cn1cc2sc(C(=O)N3C[C@@H]4CC[C@@H](Nc5ccc(Br)nn5)[C@@H]4C3)cc2n1 [Example 3-9, [(3aS,4R,6aR)-4-[(6-Bromo-3-pyridazinyl)amino]hexahydrocyclopenta[c]pyrrol-2(1H)-yl](2-methyl-2H-thieno[3,2-c]pyrazol-5-yl)methanone]
1	2	O=C(c1cc2nn(C3CC3)cc2s1)N1C[C@@H]2CC[C@@H](Nc3ccc(Br)nn3)[C@@H]2C1 [Example 3-10, [(3aS,4R,6aR)-4-[(6-Bromo-3-pyridazinyl)amino]hexahydrocyclopenta[c]pyrrol-2(1H)-yl](2-cyclopropyl-2H-thieno[3,2-c]pyrazol-5-yl)methanone]
1	5	Cc1ccc(C(=O)N2C[C@@H]3CC[C@@H](n4ccc5cc(Cl)nnc54)[C@@H]3C2)s1 (racemic) [Example 8-1, rel-[(3aS,4R,6aR)-4-(3-Chloro-7H-pyrrolo[2,3-c]pyridazin-7-yl)hexahydrocyclopenta[c]pyrrol-2(1H)-yl](5-methyl-2-thienyl)methanone]
1	1	Cc1ccc(C(=O)N2C[C@@H]3CC[C@@H](N(Cc4ccccc4)c4ccc(Br)nn4)[C@@H]3C2)s1 [Example 6-2, [(3aS,4R,6aR)-4-[Benzyl(6-bromo-3-pyridazinyl)amino]hexahydrocyclopenta[c]pyrrol-2(1H)-yl](5-methyl-2-thienyl)methanone]
2	6	O=C(c1cc2nn3c(c2s1)CCC3)N1C[C@@H]2CC[C@@H](Nc3ccc(Br)nn3)[C@@H]2C1 [Example 3-6, [(3aS,4R,6aR)-4-[(6-Bromo-3-pyridazinyl)amino]hexahydrocyclopenta[c]pyrrol-2(1H)-yl](7,8-dihydro-6H-pyrrolo[1,2-b]thieno[2,3-d]pyrazol-2-yl)methanone]
